# Source: US20220281848A1, “PYRAZOLE-SUBSTITUTED PYRROLIDINONES AS HERBICIDES” (FMC Corporation, priority 2019, published 2022)
# System: plants
# Experiment: Test D post-emergence, other plants of Tables D2 and D4
# Type: in vivo
# Settings: for STEME damage rating (100=total damage to plant; 0=no damage to plant) / VERPE damage rating (100=total damage to plant; 0=no damage to plant): "Cereals" Postemergent, evaluated after 15 d; for damage to plant (100=total damage to plant; 0=no damage to plant), ABUTH / damage to plant (100=total damage to plant; 0=no damage to plant), AMARE / damage to plant (100=total damage to plant; 0=no damage to plant), BIDPI / damage to plant (100=total damage to plant; 0=no damage to plant), BRAPL / damage to plant (100=total damage to plant; 0=no damage to plant), CYPES / damage to plant (100=total damage to plant; 0=no damage to plant), DIGSA / damage to plant (100=total damage to plant; 0=no damage to plant), ECHCG / damage to plant (100=total damage to plant; 0=no damage to plant), ELEIN / damage to plant (100=total damage to plant; 0=no damage to plant), EPHHL / damage to plant (100=total damage to plant; 0=no damage to plant), GLXMA / damage to plant (100=total damage to plant; 0=no damage to plant), IPOHE / damage to plant (100=total damage to plant; 0=no damage to plant), ORYSA / damage to plant (100=total damage to plant; 0=no damage to plant), PANMI / damage to plant (100=total damage to plant; 0=no damage to plant), SETFA / damage to plant (100=total damage to plant; 0=no damage to plant), SORVU: post-emergence
# In short: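 Damage was rated visually from 0 (none) to 100 (total), at 20 DAA for pre-emergence and 15 d for post-emergence. Plants grew from safener-treated seed in a glasshouse at 24/18° C. or 20/16° C. day/night, 65% humidity, watered twice daily.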
smiles,measurement,setting,value
CN1CC(c2cc(C(F)(F)F)n(C)n2)C(C(=O)Nc2ccc(F)cc2F)C1=O (racemic) [Compound 6],STEME damage rating (100=total damage to plant; 0=no damage to plant),Rates 130,0
same,STEME damage rating (100=total damage to plant; 0=no damage to plant),Rates 250,0
same,STEME damage rating (100=total damage to plant; 0=no damage to plant),Rates 500,10
same,VERPE damage rating (100=total damage to plant; 0=no damage to plant),Rates 130,0
same,VERPE damage rating (100=total damage to plant; 0=no damage to plant),Rates 250,10
same,VERPE damage rating (100=total damage to plant; 0=no damage to plant),Rates 500,20
same,"damage to plant (100=total damage to plant; 0=no damage to plant), ABUTH","rate 130, evaluated after 15 d",0
same,"damage to plant (100=total damage to plant; 0=no damage to plant), ABUTH","rate 250, evaluated after 15 d",10
same,"damage to plant (100=total damage to plant; 0=no damage to plant), ABUTH","rate 500, evaluated after 15 d",20
same,"damage to plant (100=total damage to plant; 0=no damage to plant), AMARE","rate 130, evaluated after 15 d",0
same,"damage to plant (100=total damage to plant; 0=no damage to plant), AMARE","rate 500, evaluated after 15 d",20
same,"damage to plant (100=total damage to plant; 0=no damage to plant), BIDPI","rate 130, evaluated after 15 d",0
same,"damage to plant (100=total damage to plant; 0=no damage to plant), BIDPI","rate 250, evaluated after 15 d",0
same,"damage to plant (100=total damage to plant; 0=no damage to plant), BIDPI","rate 500, evaluated after 15 d",0
same,"damage to plant (100=total damage to plant; 0=no damage to plant), BRAPL","rate 130, evaluated after 15 d",50
same,"damage to plant (100=total damage to plant; 0=no damage to plant), BRAPL","rate 250, evaluated after 15 d",60
same,"damage to plant (100=total damage to plant; 0=no damage to plant), BRAPL","rate 500, evaluated after 15 d",70
same,"damage to plant (100=total damage to plant; 0=no damage to plant), CYPES","rate 130, evaluated after 15 d",0
same,"damage to plant (100=total damage to plant; 0=no damage to plant), CYPES","rate 250, evaluated after 15 d",0
same,"damage to plant (100=total damage to plant; 0=no damage to plant), CYPES","rate 500, evaluated after 15 d",0
same,"damage to plant (100=total damage to plant; 0=no damage to plant), DIGSA","rate 130, evaluated after 15 d",0
same,"damage to plant (100=total damage to plant; 0=no damage to plant), DIGSA","rate 250, evaluated after 15 d",60
same,"damage to plant (100=total damage to plant; 0=no damage to plant), DIGSA","rate 500, evaluated after 15 d",70
same,"damage to plant (100=total damage to plant; 0=no damage to plant), ECHCG","rate 130, evaluated after 15 d",0
same,"damage to plant (100=total damage to plant; 0=no damage to plant), ECHCG","rate 250, evaluated after 15 d",50
same,"damage to plant (100=total damage to plant; 0=no damage to plant), ECHCG","rate 500, evaluated after 15 d",70
same,"damage to plant (100=total damage to plant; 0=no damage to plant), ELEIN","rate 130, evaluated after 15 d",0
same,"damage to plant (100=total damage to plant; 0=no damage to plant), ELEIN","rate 250, evaluated after 15 d",0
same,"damage to plant (100=total damage to plant; 0=no damage to plant), ELEIN","rate 500, evaluated after 15 d",0
same,"damage to plant (100=total damage to plant; 0=no damage to plant), EPHHL","rate 130, evaluated after 15 d",10
same,"damage to plant (100=total damage to plant; 0=no damage to plant), EPHHL","rate 250, evaluated after 15 d",20
same,"damage to plant (100=total damage to plant; 0=no damage to plant), EPHHL","rate 500, evaluated after 15 d",30
same,"damage to plant (100=total damage to plant; 0=no damage to plant), GLXMA","rate 130, evaluated after 15 d",0
same,"damage to plant (100=total damage to plant; 0=no damage to plant), GLXMA","rate 250, evaluated after 15 d",0
same,"damage to plant (100=total damage to plant; 0=no damage to plant), GLXMA","rate 500, evaluated after 15 d",0
same,"damage to plant (100=total damage to plant; 0=no damage to plant), IPOHE","rate 130, evaluated after 15 d",0
same,"damage to plant (100=total damage to plant; 0=no damage to plant), IPOHE","rate 250, evaluated after 15 d",10
same,"damage to plant (100=total damage to plant; 0=no damage to plant), IPOHE","rate 500, evaluated after 15 d",20
same,"damage to plant (100=total damage to plant; 0=no damage to plant), ORYSA","rate 130, evaluated after 15 d",0
same,"damage to plant (100=total damage to plant; 0=no damage to plant), ORYSA","rate 250, evaluated after 15 d",0
same,"damage to plant (100=total damage to plant; 0=no damage to plant), ORYSA","rate 500, evaluated after 15 d",0
same,"damage to plant (100=total damage to plant; 0=no damage to plant), PANMI","rate 130, evaluated after 15 d",0
same,"damage to plant (100=total damage to plant; 0=no damage to plant), PANMI","rate 250, evaluated after 15 d",0
same,"damage to plant (100=total damage to plant; 0=no damage to plant), PANMI","rate 500, evaluated after 15 d",0
same,"damage to plant (100=total damage to plant; 0=no damage to plant), SETFA","rate 130, evaluated after 15 d",0
same,"damage to plant (100=total damage to plant; 0=no damage to plant), SETFA","rate 250, evaluated after 15 d",20
same,"damage to plant (100=total damage to plant; 0=no damage to plant), SETFA","rate 500, evaluated after 15 d",70
same,"damage to plant (100=total damage to plant; 0=no damage to plant), SORVU","rate 130, evaluated after 15 d",0
same,"damage to plant (100=total damage to plant; 0=no damage to plant), SORVU","rate 250, evaluated after 15 d",0
same,"damage to plant (100=total damage to plant; 0=no damage to plant), SORVU","rate 500, evaluated after 15 d",0
